The test system of data set [1] is outer hair cells in organotypic cultures of the neonatal organ of Corti. Kind of data set: Hair cell counts in neomycin-exposed cochlear explant cultures. The class given is cell-based, rat. How it is done:
(§1) The basal half of cochleas containing the basal and middle turns were dissected from postnatal day 2 Wistar rats. The cultures were maintained on Nuclepore filters (pore size […]; Pleasanton, Calif.) placed on a metal grid in F12 medium (Life Technologies, Gaithersburg, Md.) containing 15% fetal bovine serum (Life Technologies). After a 2-hour-long stabilization period, explants were exposed to 100 mM neomycin sulfate (Sigma, St Louis, Mo.) for 48 hr.
(§2) Explants were fixed with 4% paraformaldehyde/0.5% glutaraldehyde in phosphate buffered saline (PBS), pH 7.4, for 30 min and dissected for surface preparations. They were stained with a 1:100 dilution of rhodamine-phalloidin in PBS containing 0.25% Triton X-l 00 overnight at 4° C. and mounted in Vectashield (Vector). Outer hair cell (OHC) numbers were quantified with a Zeiss Axiovert 100/135 epifluorescent microscope (Germany) connected to a Bio-Rad MRC-1024 confocal laser scanning system (Richmond, Calif.). Hair cells were characterized as missing if no stereocilia and cuticular plate were observed. Numbers of OHCs were evaluated using a 40×objective lens and an ocular grid. Nine to 1 fields filled by 30 OHCs in each of the 3 rows (when all of them were present) were studied from each explant. Basal and middle coils were analyzed separately. Three separate experiments, each including 4 explants of both conditions (neomycin and neomycin plus Formula II) were analyzed.
as §1, with “μM” for “mM”, “hr. The compounds of Formula I and the compound of Formula I were added at 500 nM at the time of initiation of the cultures and every 12 hr thereafter. Neomycin plus vehicle was used as a control.” for “hr.”
as §2, with “X-100” for “X-l 00”, “40x objective” for “40×objective”, “Several” for “Nine to 1”, “separately.” for “separately. Three separate experiments, each including 4 explants of both conditions (neomycin and neomycin plus Formula II) were analyzed.”

For data set [2], the system named is cochlear ganglion neurons. Conditions: Ylikoski et al., 1998; cited from earlier work.
The mark [3] stands for this setting: 100 mM neomycin (so in the source) alone for 48 hr, n=12.

As to `O=C1NC(=O)c2c1c1c(c3[nH]c4ccccc4c23)Cc2ccccc2-1` [Example 8, 6H,12H,13H-Indeno[2,3-a]pyrrolo[3,4-c]carbazole-5,7(5H, 7H)-dione], the viability at 0.5 µM in data set [1] (Rattus norvegicus, 48 h, compound 500 nM plus 100 μM neomycin 48 hr, NEO = neomycin plus vehicle, each line a separate count, read-out: % preserved) is 21%.

Turning to “NGF: nerve growth factor, negative control in cochlear neuron cultures”, the “survival of dissociated cochlear neurons of the perinatal rat” value in data set [2] is “does not have any effect or its effect is very weak”.

neomycin sulfate [reference compound]: in data set [1] (setting [3]), the “OHCs in the basal turn lost” value is “Approximately 90%” and the “OHCs in the middle turn lost” value is about 25%.

B1: NT-3: neurotrophic factor, positive comparator in cochlear neuron cultures (protein, UniProt P20783 139-257, looked up)
Neurotrophin-3: YAEHKSHRGEYSVCDSESLWVTDKSSAIDIRGHQVTVLGEIKTGNSPVKQYFYETRCKEARPVKNGCRGIDDKHWNSQCKTSQTYVRALTSENNKLVGWRWIRIDTSCVCALSRKIGRT
In the case of B1, in data set [2], the “survival of dissociated cochlear neurons of the perinatal rat” value was “most potent neurotrophic factor promoting survival”.
